Several values for one entry are separate records, joined by “and”; a condition that tells them apart may be missing. Equal values may be shown once. Read-outs that look alike come from different tables or passages of the source.
Columns and labels:
MOR = biological target: T1, MOR (Homo sapiens, UniProt P35372); test: BRET assay MOR and Nb6; assay type: cell-based; conditions: Log [Drug]
T1 construct: expressed in transfected cells; host or cells: HEK 293T (by the general BRET protocol; not repeated for MOR)

KOR = KOR (Homo sapiens, UniProt P41145); test: Competition binding with 3H-JDTic in the absence or presence of 5 µM Nb6 or Nb39
ETA [1] = assay type: cell-based, human; conditions: ETA-KOR
ETA [2] = assay type: cell-based, human; conditions: ETA-KOR, Log [Drug]

C[C@@H](NC(=O)[C@@H](N)Cc1ccc(O)cc1)C(=O)NCC(=O)N(C)[C@@H](Cc1ccccc1)C(=O)NCCO [DAMGO]
response (Figure S9b) (MOR; M -6): 34.0976 and 31.8296 and 33.2096 | response (Figure S9b) (MOR; M -7): 78.9066 and 72.2446 and 76.3636 | response (Figure S9b) (MOR; M -8): 84.8057 and 83.6246 and 84.5411 | response (Figure S9b) (MOR; M -9): 92.3096 and 93.4924 | response (Figure S9b) (MOR; M -10): 90.9034 and 89.2915 and 90.6654 | response (Figure S9b) (MOR; M -11): 93.7193 and 94.9714 and 95.2973 | response (Figure S9b) (MOR; M -12): 99.6463 and 100.354

CC[C@H](C)[C@H](NC(=O)[C@H](CCCNC(=N)N)NC(=O)[C@H](CCCNC(=N)N)NC(=O)[C@H](CC(C)C)NC(=O)[C@H](Cc1ccccc1)NC(=O)CNC(=O)CNC(=O)[C@@H](N)Cc1ccc(O)cc1)C(=O)N[C@@H](CCCNC(=N)N)C(=O)N1CCC[C@H]1C(=O)N[C@@H](CCCCN)C(=O)N[C@@H](CC(C)C)C(=O)N[C@@H](CCCCN)C(=O)O [Dynorphin A, 1-13, Dynorphin A (1–13)]
Ki (KOR): 2.43 ± 0.2 nM

CC[C@H](C)[C@H](NC(=O)[C@H](CC(=O)O)NC(=O)[C@H](CC(C)C)NC(=O)[C@H](Cc1c[nH]cn1)NC(=O)[C@@H]1CSSC[C@H](N)C(=O)N[C@@H](CO)C(=O)N[C@H]2CSSC[C@H](NC(=O)[C@H](CCC(=O)O)NC(=O)[C@H](CCCCN)NC(=O)[C@H](CC(=O)O)NC(=O)[C@H](CCSC)NC(=O)[C@H](CC(C)C)NC(=O)[C@H](CO)NC(=O)[C@H](CO)NC2=O)C(=O)N[C@@H](C(C)C)C(=O)N[C@@H](Cc2ccc(O)cc2)C(=O)N[C@@H](Cc2ccccc2)C(=O)N1)C(=O)N[C@H](C(=O)N[C@@H](Cc1c[nH]c2ccccc12)C(=O)O)[C@@H](C)CC [Endothelin-1]
Net BRET receptor and Nb6, source data Figure 5b (ETA [1]; Log [Endothelin-1,] M = -5): 4.499 and 7.7967 and 6.394 | Net BRET receptor and Nb6, source data Figure 5b (ETA [1]; Log [Endothelin-1,] M = -6): 5.268 and 6.925 and 6.885 | Net BRET receptor and Nb6, source data Figure 5b (ETA [1]; Log [Endothelin-1,] M = -7): 45.5139 and 37.9048 and 42.0353 | Net BRET receptor and Nb6, source data Figure 5b (ETA [1]; Log [Endothelin-1,] M = -8): 94.8754 and 92.9034 and 94.0384 | Net BRET receptor and Nb6, source data Figure 5b (ETA [1]; Log [Endothelin-1,] M = -9): 99.5856 and 100.414 and 100.568 | Net BRET receptor and Nb6, source data Figure 5b (ETA [1]; Log [Endothelin-1,] M = -10): 98.7901 and 95.8099 and 98.252 | Net BRET receptor and Nb6, source data Figure 5b (ETA [1]; Log [Endothelin-1,] M = -11): 101.512 and 91.9128 and 97.2504 | Net BRET G protein activation, source data Figure 5c (ETA [2]; M = -5.5): 8.126 and 14.2188 and 11.7402 | Net BRET G protein activation, source data Figure 5c (ETA [2]; M = -6.5): 13.3731 and 8.584 and 11.2246 | Net BRET G protein activation, source data Figure 5c (ETA [2]; M = -7.5): 27.9656 and 34.3494 and 31.9455 | Net BRET G protein activation, source data Figure 5c (ETA [2]; M = -8.5): 53.981 and 48.3799 and 51.5065 | Net BRET G protein activation, source data Figure 5c (ETA [2]; M = -9.5): 73.7875 and 86.5149 and 80.3002 | Net BRET G protein activation, source data Figure 5c (ETA [2]; M = -10.5): 94.2005 and 91.2115 and 93.274 | Net BRET G protein activation, source data Figure 5c (ETA [2]; M = -11.5): 104.258 and 97.1609 and 101.662 | Net BRET G protein activation, source data Figure 5c (ETA [2]; M = -12.5): 100.567 and 115.131

NC(=O)c1ccc(Oc2ccc(CN3CCC[C@H]3c3cccnc3)cc2)c(F)c1 [LY2459989]
increase of binding affinity in the presence of Nb6 (KOR): ~ 6 fold | Ki (KOR; read-out: Ki ± SEM): 3.4 ± 0.25 nM

— paper PMC7052193, “Nanobody-enabled monitoring of kappa opioid receptor states” (Nature Communications, 2020)
